Experimental data as given in paper PMC5963010, “Characterization of a novel thermostable and xylose-tolerant GH 39 β-xylosidase from Dictyoglomus thermophilum” (BMC Biotechnology, 2018).

Molecular target: T1, Xln-DT (Dictyoglomus thermophilum, UniProt B5YB78)
T1 construct: gene DICTH_1792; full-length ORF, 502 aa (1509 bp), in pET-20b (BamHI/XhoI), E. coli BL21(DE3); tag not described
T1 sequence (B5YB78 1-502): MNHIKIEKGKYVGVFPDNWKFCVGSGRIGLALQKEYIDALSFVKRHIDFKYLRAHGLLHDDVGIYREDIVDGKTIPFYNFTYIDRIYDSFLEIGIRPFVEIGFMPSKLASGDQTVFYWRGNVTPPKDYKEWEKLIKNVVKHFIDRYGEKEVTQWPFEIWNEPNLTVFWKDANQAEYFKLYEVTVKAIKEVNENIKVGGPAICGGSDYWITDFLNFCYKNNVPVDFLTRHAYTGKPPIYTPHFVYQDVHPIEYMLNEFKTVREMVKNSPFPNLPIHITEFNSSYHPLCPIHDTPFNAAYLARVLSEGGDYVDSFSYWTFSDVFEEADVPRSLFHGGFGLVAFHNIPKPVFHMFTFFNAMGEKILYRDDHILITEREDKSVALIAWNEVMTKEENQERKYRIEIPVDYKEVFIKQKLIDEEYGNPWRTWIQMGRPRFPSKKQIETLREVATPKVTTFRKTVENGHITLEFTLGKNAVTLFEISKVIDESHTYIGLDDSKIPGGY
Test: pNPX hydrolysis assay with added xylose
Format: biochemical

inhibition at 3 M: 40%
Compound: OC1OC[C@@H](O)[C@H](O)[C@H]1O (stereo partly shown) [xylose]
